Several values for one entry are separate records, joined by “and”; a condition that tells them apart may be missing. Equal values may be shown once. Read-outs that look alike come from different tables or passages of the source.
Legend:
DPP8 [1] = target: T1, DPP8 (Homo sapiens, UniProt Q6V1X1); test: biochemical; assay type: biochemical
T1 construct: purchased Proteros Biostructures GmbH, Germany
Experimental: (§1) Enzyme activity of DPP4, DPP8, DPP9 (Proteros Biostructures GmbH, Germany) and PREP (Sigma Aldrich, USA) was determined by measuring the initial velocity of AMC release from the fluorogenic substrate GP-AMC (Sigma Aldrich, USA) using a Tecan Spark® 10 M multimode microplate reader (Tecan Group Ltd., Switzerland) in activity buffer (20 mM HEPES/KOH pH 7.3, 110 mM potassium acetate, 2 mM Mg acetate, 0.5 mM EGTA, 0.02% Tween 20, supplemented with 1 mM DTT) and a final volume of 20 μL for maximal 60 min at 30 °C. Prior to activity measurement, 10 nM enzyme was incubated for 45 min at 30 °C and gentle shaking with the inhibitor compounds in concentrations ranging from 0 to 100 μM. The compounds were dissolved in DMSO and diluted in activity buffer (final DMSO concentration: 1%). […] IC50 values were calculated using Graph-Pad Prism v10.2.3 using the equation: [Inhibitor] vs. response—Variable slope (four parameters). All measurements were performed in triplicates and error bars represent standard errors of the fit.

DPP8 [2] = target: T1, DPP8; test: Time-dependent DPP8 inhibition kinetics (kobs, KI, kinact, kapp); assay type: biochemical
Experimental: (§2) To calculate the reaction rate of covalent bond formation between DPP proteins and inhibitor, kinact, KI and kapp was determined as previously described[30],[51]. Therefore, 250 µM GP-AMC was added simultaneously with a serial dilution of the inhibitor to 10 nM enzyme. Enzyme activity was measured for a maximum of 120 min at 30 °C, and fluorescence intensities were then plotted against time. Data was fitted to the following equation: Y=(vi/kobs)*(1−exp(−kobs*X)) using Graph-Pad Prism v10.2.3. The obtained pseudo-first-order rate constant was used to determine the maximum enzyme inhibition rate (kinact) and binding affinity (KI) by fitting the plot of kobs against inhibitor concentration to the following equation: Y=kinact/1+(KI/[I]) . The efficiency of covalent bond formation (kapp) was calculated by the ratio of kinact/KI. All measurements were performed in triplicates and error bars represent standard errors of the fit.

[3] = test system: serine hydrolases (≡FP target proteins) in HEK293 cell lysates; test: Competitive ABPP with fluorophosphonate-alkyne (≡FP) in HEK293 cell lysates; assay type: binding, H. sapiens; conditions: 50 µM pre-incubation 2 h, 2 µM ≡FP
DPP9 [4] = target: T2, DPP9 (Homo sapiens, UniProt Q86TI2); test: biochemical; assay type: biochemical; parameters: purchased Proteros Biostructures GmbH, Germany
Experimental: as §1
Target sequence in this assay (Q86TI2 whole entry): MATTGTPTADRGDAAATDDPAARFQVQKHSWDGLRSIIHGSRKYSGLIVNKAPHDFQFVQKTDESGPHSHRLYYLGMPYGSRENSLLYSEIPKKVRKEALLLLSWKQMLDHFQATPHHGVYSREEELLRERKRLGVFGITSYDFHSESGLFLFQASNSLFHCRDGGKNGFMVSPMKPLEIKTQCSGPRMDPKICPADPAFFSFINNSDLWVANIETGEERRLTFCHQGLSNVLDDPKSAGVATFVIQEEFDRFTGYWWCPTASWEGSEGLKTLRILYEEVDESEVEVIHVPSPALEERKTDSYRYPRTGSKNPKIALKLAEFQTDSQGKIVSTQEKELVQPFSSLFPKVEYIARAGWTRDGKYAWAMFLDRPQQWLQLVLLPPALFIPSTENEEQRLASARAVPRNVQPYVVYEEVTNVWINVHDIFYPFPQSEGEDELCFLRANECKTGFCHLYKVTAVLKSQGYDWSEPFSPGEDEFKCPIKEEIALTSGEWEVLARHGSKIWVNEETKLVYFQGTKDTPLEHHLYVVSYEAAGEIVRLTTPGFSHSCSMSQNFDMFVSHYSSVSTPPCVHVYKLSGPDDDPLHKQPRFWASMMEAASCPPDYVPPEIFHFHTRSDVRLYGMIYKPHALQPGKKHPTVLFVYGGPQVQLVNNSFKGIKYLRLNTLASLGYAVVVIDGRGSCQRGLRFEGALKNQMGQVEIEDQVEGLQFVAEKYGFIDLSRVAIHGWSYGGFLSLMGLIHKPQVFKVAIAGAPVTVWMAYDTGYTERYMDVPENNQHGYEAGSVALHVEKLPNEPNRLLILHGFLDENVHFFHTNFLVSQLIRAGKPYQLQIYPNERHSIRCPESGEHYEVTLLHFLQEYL

DPP9 [5] = target: T2, DPP9; test: Time-dependent DPP9 inhibition kinetics (kobs, KI, kinact, kapp); assay type: biochemical; parameters: purchased Proteros Biostructures GmbH, Germany
Experimental: as §2
Target sequence in this assay (Q86TI2 whole entry): as above

DPP9 [6] = target: T2, DPP9; test: Native MS of DPP9 dimer after incubation with inhibitor; conditions: 50 µM, 90 min
Target sequence in this assay (Q86TI2 20-863): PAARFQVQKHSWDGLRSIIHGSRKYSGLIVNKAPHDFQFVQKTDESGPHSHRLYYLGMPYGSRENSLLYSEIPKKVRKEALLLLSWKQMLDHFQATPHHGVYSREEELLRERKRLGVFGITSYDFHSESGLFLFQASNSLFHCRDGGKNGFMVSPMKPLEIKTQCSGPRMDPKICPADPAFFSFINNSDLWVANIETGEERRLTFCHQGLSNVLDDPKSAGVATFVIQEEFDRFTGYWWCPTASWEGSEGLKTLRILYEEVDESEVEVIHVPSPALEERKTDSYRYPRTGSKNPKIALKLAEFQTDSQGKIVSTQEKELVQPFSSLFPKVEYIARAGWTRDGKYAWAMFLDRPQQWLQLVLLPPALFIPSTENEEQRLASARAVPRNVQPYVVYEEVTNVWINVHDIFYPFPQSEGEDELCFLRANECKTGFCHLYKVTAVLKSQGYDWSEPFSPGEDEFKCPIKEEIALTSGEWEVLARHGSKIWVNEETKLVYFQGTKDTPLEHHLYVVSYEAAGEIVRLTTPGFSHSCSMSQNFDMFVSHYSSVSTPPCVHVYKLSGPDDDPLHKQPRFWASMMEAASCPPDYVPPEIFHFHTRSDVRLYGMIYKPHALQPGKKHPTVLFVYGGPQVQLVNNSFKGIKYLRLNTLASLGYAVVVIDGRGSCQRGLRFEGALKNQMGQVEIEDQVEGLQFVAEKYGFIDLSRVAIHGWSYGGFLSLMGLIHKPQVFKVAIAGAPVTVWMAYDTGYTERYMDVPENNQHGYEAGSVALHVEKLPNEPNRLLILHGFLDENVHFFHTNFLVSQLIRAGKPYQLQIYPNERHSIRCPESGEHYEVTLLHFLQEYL
Experimental: For this purpose, a rebuffering procedure using 10 kDa molecular weight cut-off spin-filter columns (Merck Millipore, USA) was applied for five cycles[58]. The resulting protein concentration was determined using microvolume spectroscopy (DS-11+, DeNovix, USA) and adjusted to 5 µM with 200 mM NH4OAc. […] A total number of 1000 MS spectra were recorded in positive EMR mode on an Exactive Plus EMR Orbitrap mass spectrometer (Thermo Fisher Scientific, USA) calibrated with CsI (2 mg mL^-1; Thermo Fisher Scientific, USA).
UniDec software (version 6.0.4) was used for mass deconvolution[59]. For this purpose, the default settings were used within an m/z range of 6500 to 9500, with the exception of a higher deconvolution resolution (sample mass every 1 Da), a narrower peak detection window (peak detection range of 80 Da) and a total peak normalization. GraphPad Prism v8.0.1 was used for data visualization.

DPP4 = target: T3, DPP4 (Homo sapiens, UniProt P27487); test: biochemical; assay type: biochemical
T3 construct: purchased Proteros Biostructures GmbH, Germany
Experimental: as §1

T3 sequence (P27487 whole entry): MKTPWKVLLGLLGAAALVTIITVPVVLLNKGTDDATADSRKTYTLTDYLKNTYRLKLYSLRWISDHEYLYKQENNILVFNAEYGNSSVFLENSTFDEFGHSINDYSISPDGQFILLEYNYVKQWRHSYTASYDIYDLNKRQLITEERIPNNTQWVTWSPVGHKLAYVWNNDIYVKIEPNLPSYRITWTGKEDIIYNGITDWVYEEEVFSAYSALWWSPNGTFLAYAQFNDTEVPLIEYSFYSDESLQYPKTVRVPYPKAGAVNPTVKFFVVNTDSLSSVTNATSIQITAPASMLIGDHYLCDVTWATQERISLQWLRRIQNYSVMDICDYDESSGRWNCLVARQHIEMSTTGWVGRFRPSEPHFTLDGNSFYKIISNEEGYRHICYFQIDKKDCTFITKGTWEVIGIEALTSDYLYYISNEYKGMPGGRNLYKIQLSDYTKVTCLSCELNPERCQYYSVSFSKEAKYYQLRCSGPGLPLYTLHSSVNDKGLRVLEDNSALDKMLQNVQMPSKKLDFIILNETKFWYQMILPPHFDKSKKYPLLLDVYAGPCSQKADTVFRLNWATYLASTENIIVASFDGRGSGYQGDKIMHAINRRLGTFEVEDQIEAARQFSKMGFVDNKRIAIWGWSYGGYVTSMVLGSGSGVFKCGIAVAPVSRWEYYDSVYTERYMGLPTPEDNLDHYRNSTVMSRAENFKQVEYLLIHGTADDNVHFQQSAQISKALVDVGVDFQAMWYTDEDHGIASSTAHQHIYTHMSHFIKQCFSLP
T1 sequence (Q6V1X1 whole entry): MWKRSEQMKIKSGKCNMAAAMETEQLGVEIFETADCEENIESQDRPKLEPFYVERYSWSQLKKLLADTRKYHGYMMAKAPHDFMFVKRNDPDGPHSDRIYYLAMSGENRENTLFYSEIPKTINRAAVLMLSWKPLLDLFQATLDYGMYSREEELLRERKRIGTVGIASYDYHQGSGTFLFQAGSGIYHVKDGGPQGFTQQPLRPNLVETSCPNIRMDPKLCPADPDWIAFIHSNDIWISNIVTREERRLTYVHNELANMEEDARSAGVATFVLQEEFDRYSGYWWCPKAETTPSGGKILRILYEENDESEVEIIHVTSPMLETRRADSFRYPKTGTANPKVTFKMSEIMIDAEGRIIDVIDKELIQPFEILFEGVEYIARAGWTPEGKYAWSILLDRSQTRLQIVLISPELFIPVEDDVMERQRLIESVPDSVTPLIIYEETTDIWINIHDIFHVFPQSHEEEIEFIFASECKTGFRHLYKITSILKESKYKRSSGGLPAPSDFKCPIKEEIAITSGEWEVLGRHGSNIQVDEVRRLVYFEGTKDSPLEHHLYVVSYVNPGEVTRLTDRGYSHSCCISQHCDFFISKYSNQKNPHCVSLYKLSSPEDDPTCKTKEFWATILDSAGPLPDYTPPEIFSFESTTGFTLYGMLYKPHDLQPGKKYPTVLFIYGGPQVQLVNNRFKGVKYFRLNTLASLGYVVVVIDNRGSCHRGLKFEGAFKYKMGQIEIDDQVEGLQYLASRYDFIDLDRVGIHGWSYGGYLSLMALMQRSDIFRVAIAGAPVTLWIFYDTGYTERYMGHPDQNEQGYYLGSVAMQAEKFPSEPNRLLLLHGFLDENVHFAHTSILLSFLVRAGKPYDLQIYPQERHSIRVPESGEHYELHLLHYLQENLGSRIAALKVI

`N[C@H]1CCCN([P@@](N)(=O)NS(=O)(=O)O)C1=O` [Sulphostin] was tested. Which IC50 (DPP8 [1]) did it give?
Its IC50 is 6.93 ± 0.62 µM.

And the remaining activity at 1.5625 µM (DPP8 [1]; read-out: DPP8 activity [%], c 1562.5 nM)?
The remaining activity at 1.5625 µM was 93.5%.

What about the remaining activity at 3.125 µM (DPP8 [1]; read-out: DPP8 activity [%], c 3125 nM) of the same compound?
The remaining activity at 3.125 µM was 73.6%.

And the remaining activity at 6.25 µM (DPP8 [1]; read-out: DPP8 activity [%], c 6250 nM)?
Its remaining activity at 6.25 µM is 47.7%.

And the remaining activity at 25 µM (DPP8 [1]; read-out: DPP8 activity [%], c 25000 nM)?
The remaining activity at 25 µM was 11.8%.

And the remaining activity at 50 µM (DPP8 [1]; read-out: DPP8 activity [%], c 50000 nM)?
The remaining activity at 50 µM was 5.62%.

And the remaining activity at 100 µM (DPP8 [1]; read-out: DPP8 activity [%], c 100000 nM)?
Its remaining activity at 100 µM is 3.57%.

What about the “kobs DPP8” value (DPP8 [2]; c 1.5625 µM) of the same compound?
The value was 3.383e-05 s⁻¹.

And the “kobs DPP8” value (DPP8 [2]; c 6.25 µM)?
The value was 4.011e-05 s⁻¹.

And the “kobs DPP8” value (DPP8 [2]; c 25 µM)?
The value was 0.0001308 s⁻¹.

What about the “kobs DPP8” value (DPP8 [2]; c 50 µM) of the same compound?
The value was 0.0001589 s⁻¹.

What about the “kapp DPP8” value (DPP8 [2]; ratio kinact/KI) of the same compound?
Its value is 11 M⁻¹ s⁻¹.

And the KI (inactivation) (DPP8 [2]; read-out: KI [M] best fit DPP8, source data)?
The KI (inactivation) was 2.11e-05 M.

What about the “competition of ≡FP labeling” value [3] of the same compound?
Its value is “significantly competed only the labeling of DPP8/9”.

What about the IC50 (DPP9 [4]) of the same compound?
The IC50 was 1.39 ± 0.108 µM.

And the remaining activity at 0.15625 µM (DPP9 [4]; read-out: DPP9 activity [%], c 156.25 nM)?
The remaining activity at 0.15625 µM was 93.2%.

What about the remaining activity at 0.3125 µM (DPP9 [4]; read-out: DPP9 activity [%], c 312.5 nM) of the same compound?
Its remaining activity at 0.3125 µM is 87.7%.

And the remaining activity at 2.5 µM (DPP9 [4]; read-out: DPP9 activity [%], c 2500 nM)?
The remaining activity at 2.5 µM was 28.5%.

What about the remaining activity at 5 µM (DPP9 [4]; read-out: DPP9 activity [%], c 5000 nM) of the same compound?
The remaining activity at 5 µM was 16.7%.

And the remaining activity at 10 µM (DPP9 [4]; read-out: DPP9 activity [%], c 10000 nM)?
The remaining activity at 10 µM was 10.8%.

What about the remaining activity at 25 µM (DPP9 [4]; read-out: DPP9 activity [%], c 25000 nM) of the same compound?
Its remaining activity at 25 µM is 5%.

What about the remaining activity at 50 µM (DPP9 [4]; read-out: DPP9 activity [%], c 50000 nM) of the same compound?
Its remaining activity at 50 µM is 3.52%.

What about the remaining activity at 100 µM (DPP9 [4]; read-out: DPP9 activity [%], c 100000 nM) of the same compound?
Its remaining activity at 100 µM is 2.34%.

And the “kobs DPP9” value (DPP9 [5]; c 0.15625 µM)?
Its value is 6.239e-05 s⁻¹.

What about the “kobs DPP9” value (DPP9 [5]; c 5 µM) of the same compound?
The value was 0.0002112 s⁻¹.

And the “kapp DPP9” value (DPP9 [5]; ratio kinact/KI)?
Its value is 317 M⁻¹ s⁻¹.

And the KI (inactivation) (DPP9 [5]; read-out: KI [M] best fit DPP9, source data)?
Its KI (inactivation) is 7.33e-07 M.

What about the “Difference [Da] between doubly and singly modified DPP9 dimer” value (DPP9 [6]) of the same compound?
The value was 156 Da.

What about the “Intensity [%] of DPP9 dimer with one modification” value (DPP9 [6]) of the same compound?
The value was 44.37%.

What about the “Intensity [%] of DPP9 dimer with two modifications” value (DPP9 [6]) of the same compound?
The value was 32.64%.

What about the “Intensity [%] of unmodified DPP9 dimer” value (DPP9 [6]) of the same compound?
The value was 22.99%.

And the “increase of DPP9 molecular weight, both active sites of the dimer modified” value (DPP9 [6])?
The value was 311 Da.

And the “increase of DPP9 molecular weight, first adduct (one active site of the dimer modified)” value (DPP9 [6])?
Its value is 155 Da.

What does the source list for `CC(C)[C@H](N)C(=O)N1CCC[C@H]1B(O)O` [VbP, Val-boroPro, reference compound]?
DPP4 activity [%] (DPP4; c 1.6 nM): 67.4885% and 113.658% and 85.6002%; DPP4 activity [%] (DPP4; c 3.1 nM): 70.6772% and 79.559% and 93.9074%; DPP4 activity [%] (DPP4; c 6.3 nM): 51.4161% and 71.0555% and 74.1702%; DPP4 activity [%] (DPP4; c 25 nM): 4.534% and 5.3397% and 4.7469%; DPP4 activity [%] (DPP4; c 50 nM): 3.474% and 3.265% and 3.283%; DPP4 activity [%] (DPP4; c 100 nM): 2.2772% and 2.383% and 2.483%

How did the IC50 (DPP8 [1]; GP-AMC 250 µM, 10 nM enzyme, 45 min pre-incubation at 30 °C, read-out: IC50 DPP8) turn out when `NC1CCCN(P(N)(=O)NS(=O)(=O)O)C1=O` (centres unmarked) [WTC0260B] was run?
Its IC50 is 27.9 µM.

What about the IC50 (DPP9 [4]; GP-AMC 250 µM, 10 nM enzyme, 45 min pre-incubation at 30 °C, read-out: IC50 DPP9) of the same compound?
Its IC50 is 6.26 µM.

— paper PMC11968843, “Sulphostin-inspired N-phosphonopiperidones as selective covalent DPP8 and DPP9 inhibitors” (Nature Communications, 2025)
